The values that follow come from patent US9593140B2, “Antibacterial tylosin derivatives and methods for their preparation” (Bayer Intellectual Property GmbH, priority 2011, dated 2017).

Common to all, as to format: cell-based
Assay [1] has as its system Mannhemia hemolytica KB345. Put plainly: Paper disc assay, M. hemolytica KB345 (Tilmicosin-sensitivity strain). Particulars: for zone of inhibition at 1 mg/disc / zone of inhibition at 3 mg/disc / zone of inhibition at 10 mg/disc / zone of inhibition at 30 mg/disc / zone of inhibition at 100 mg/disc: 24 h; for zone of inhibition at 1 mg/disc: 1 mg/6 mm disk. As to the method: (§1) (1) Antibacterial Activities Against Mannheimia and Pasteurella were Determined by the Following Steps:
(§2) 1) M. hemolytica KB345 (Tilmicosin-sensitivity strain) and M. hemolytica KB346 (Tilmicosin-low sensitivity strain) were provided. KB 345 strain stored at −80° C. was seeded to BHIB agar medium (10 mL) by using Microbank beads (Pro-Lab) and platinum nail. After statically incubating the KB 345 strain for 24 hours at 37° C., it was seeded to maintaining slant BHIB agar medium (7 mL) by using platinum loop, further statically incubated for 24 hours at 37° C. to obtain slant. One platinum loop of KB 345 strain stored at the slant was inoculated into a large test tube charged with BHIB liquid medium (10 mL) and then incubated for 24 hours at 37° C. with shaking.
(§3) 2) A paper disc (ADVANTEC, Φ:6 mm) was impregnated with a solution of test compound and dried under reduced pressure.
(§4) 3) To a melted BHIB agar medium was inoculated 1% of the broth obtained from step 1) above to prepare a test plate. After the medium set, the paper disc prepared in step 2) above was put on the plate and it was incubated at 37° C.
(§5) 4) After one day, the inhibition zone diameter and clarity (A to E) were determined.

Assay [2] has as its system Mannhemia hemolytica KB346. Put plainly: Paper disc assay, M. hemolytica KB346 (Tilmicosin-low sensitivity strain). Particulars: Table 3. The procedure: as §1, §2, §3, §4, §5
For KB346 strain, the same procedures were repeated.

The subject of assay [3] is Bacillus subtilis ATCC6633. Put plainly: Paper disc assay, Bacillus subtilis (S). The procedure:
(§6) (2) Antibacterial activities against other bacteria were determined with Micrococcus luteus ATCC9341 (1), Bacillus subtilis […] (s), Escherichia coli NIHJ (c), Xanthomonas campestris KB88 (X), Mucor racemosus IFO 4581 (Mu) and Candida albicans ATCC 64548 (Ca).
(§7) Bacillus subtilis ATCC6633 was incubated in Davis synthetic medium and then the seed broth was combined with the medium in the ratio of 1:99 to obtain a test plate. Micrococcus luteus ATCC9341, Escherichia coli NIHJ and Xanthomonas campestris KB88 were respectively incubated in Nutrient agar medium and inoculated at 0.2%, 0.5% and 1.0%. Mucor racemosus IFO 4581 and Candida albicans ATCC 64548 were respectively incubated in GY agar medium and then inoculated at 0.3% and 0.2%.
(§8) A paper disc (ADVANTEC, Φ:6 mm) was impregnated with a solution of test compound and dried under reduced pressure. The paper disc was put on the test plate and it was incubated for 24 hours at 37° C. After incubation, the inhibition zone diameter and clarity (A to E) were determined.

Assay [4] deals with Micrococcus luteus ATCC9341. The experiment in a line: Paper disc assay, Micrococcus luteus (l). As to the method:
as §6, §7, §8

The test system of assay [5] is Xanthomonas campestris KB88. The experiment in a line: Paper disc assay, Xanthomonas campestris (X). As to the method:
as §6, §7, §8

On to `CC[C@H]1OC(=O)C[C@@H](O)[C@H](C)[C@@H](O[C@@H]2O[C@H](C)[C@@H](O)[C@H](N(C)C)[C@H]2O)[C@@H](CC=O)C[C@@H](C)C(=O)/C=C/C(C)=C/[C@@H]1CO[C@@H]1O[C@H](C)[C@@H](O)[C@@H](OC)[C@H]1OC` [YT6, Desmycosin], for which the “Inhibition zone (mm)” value in assay [1] (Table 2, 30 mg/6 mm disk) was determined as 10.5 mm; in assay [2] (3 mg/6 mm disk), 8.5 mm; in assay [2] (10 mg/6 mm disk) it was 13.5 mm; in assay [2] (30 mg/6 mm disk) it was 17.5 mm; in assay [2] (100 mg/6 mm disk), 21.0 mm.
Turning to `CC[C@H]1OC(=O)C[C@@H](O)[C@H](C)[C@@H](O[C@@H]2O[C@H](C)[C@@H](O)[C@H](N(C)C)[C@H]2O)[C@@H](CCCl)C[C@@H](C)C(=O)/C=C/C(C)=C/[C@@H]1CO[C@@H]1O[C@H](C)[C@@H](O)[C@@H](OC)[C@H]1OC` [YT8, 20-chloro-20-deoxodesmycosin], the “Inhibition zone (mm)” value in assay [1] (Table 2, 10 mg/6 mm disk) worked out at 12.5 mm; in assay [1] (Table 2, 30 mg/6 mm disk), 18.0 mm; in assay [1] (Table 2, 100 mg/6 mm disk), 20.0 mm; in assay [2] (30 mg/6 mm disk), 11.0 mm; in assay [2] (100 mg/6 mm disk) it was 14.5 mm.
In the case of `CC[C@H]1OC(=O)C[C@@H](O)[C@H](C)[C@@H](O[C@@H]2OC(C)[C@@H](O)C(N(C)C)C2O)[C@@H](CCn2cc(-c3ccccn3)nn2)C[C@@H](C)C(=O)/C=C/C(C)=C/[C@@H]1CO[C@@H]1OC(C)[C@@H](O)C(OC)C1OC` (stereo partly drawn) [YT12, 20-(4-(pyridine-2-yl)-1H-1,2,3-triazol-1-yl)-20-deoxodesmycosin], in assay [1] (Table 2), the zone of inhibition (in general, the extent of the growth-free halo in a diffusion test) at 1 mg/disc was determined as 9 mm. The same compound showed a zone of inhibition at 3 mg/disc in assay [1] (Table 2, 3 mg/6 mm disk) of 13 mm. In addition, the zone of inhibition at 10 mg/disc in assay [1] (Table 2, 10 mg/6 mm disk) is 17 mm. The zone of inhibition at 30 mg/disc in assay [1] (Table 2, 30 mg/6 mm disk) is 19 mm. This compound returned a zone of inhibition at 100 mg/disc in assay [1] (Table 2, 100 mg/6 mm disk) of 22 mm. In addition, the “Inhibition zone (mm)” value in assay [3] (0.1 mg/6 mm disc) stood at 7 mm; in assay [3] (1 mg/6 mm disc), 12.5 mm; in assay [3] (10 mg/6 mm disc), 14 mm; in assay [4] (0.1 mg/6 mm disc) it was 12 mm; in assay [4] (1 mg/6 mm disc), 18.5 mm; in assay [4] (10 mg/6 mm disc), 25 mm. Also, the “Inhibition zone (mm)” value came to 7 mm in assay [5] (0.1 mg/6 mm disc), 12.5 mm in assay [5] (1 mg/6 mm disc) and 27 mm in assay [5] (10 mg/6 mm disc).
In the case of `CC[C@H]1OC(=O)C[C@@H](O)[C@H](C)[C@@H](O[C@@H]2OC(C)[C@@H](O)C(N(C)C)C2O)[C@@H](CCn2cc(-c3ccccc3)nn2)C[C@@H](C)C(=O)/C=C/C(C)=C/[C@@H]1CO[C@@H]1OC(C)[C@@H](O)C(OC)C1OC` (stereo partly drawn) [YT13, 20-(4-phenyl-1H-1,2,3-triazol-1-yl)-20-deoxodesmycosin], in assay [1] (Table 2), the zone of inhibition at 1 mg/disc amounted to 11 mm. Besides, the zone of inhibition at 3 mg/disc in assay [1] (Table 2, 3 mg/6 mm disk) turned out to be 15 mm. In assay [1] (Table 2, 10 mg/6 mm disk), this compound had a zone of inhibition at 10 mg/disc of 16 mm. This compound gave a zone of inhibition at 30 mg/disc in assay [1] (Table 2, 30 mg/6 mm disk) of 18 mm. In assay [1] (Table 2, 100 mg/6 mm disk), the zone of inhibition at 100 mg/disc was determined as 21 mm. The “Inhibition zone (mm)” value is 9.5 mm in assay [3] (0.1 mg/6 mm disc); 12 mm in assay [3] (1 mg/6 mm disc); 15.5 mm in assay [3] (10 mg/6 mm disc); 15 mm in assay [4] (0.1 mg/6 mm disc); 21.5 mm in assay [4] (1 mg/6 mm disc); 27.5 mm in assay [4] (10 mg/6 mm disc). Further, the “Inhibition zone (mm)” value in assay [5] (0.1 mg/6 mm disc) is listed as 8 mm; in assay [5] (1 mg/6 mm disc), 17 mm; in assay [5] (10 mg/6 mm disc) it was 23.5 mm.
As to `CC[C@H]1OC(=O)C[C@@H](O)[C@H](C)[C@@H](O[C@@H]2OC(C)[C@@H](O)C(N(C)C)C2O)[C@@H](CCn2cc(CCCCCl)nn2)C[C@@H](C)C(=O)/C=C/C(C)=C/[C@@H]1CO[C@@H]1OC(C)[C@@H](O)C(OC)C1OC` (stereo partly drawn) [YT19, 20-(4-(4-chlorobutyl)-1H-1,2,3-triazol-1-yl)-20-deoxodesmycosin], in assay [1] (Table 2, 3 mg/6 mm disk), the zone of inhibition at 3 mg/disc worked out at 14 mm. In assay [1] (Table 2, 10 mg/6 mm disk), this compound showed a zone of inhibition at 10 mg/disc of 16 mm. The same compound came in with a zone of inhibition at 30 mg/disc in assay [1] (Table 2, 30 mg/6 mm disk) of 18 mm. Besides, in assay [1] (Table 2, 100 mg/6 mm disk), the zone of inhibition at 100 mg/disc is 21 mm. The “Inhibition zone (mm)” value in assay [3] (0.1 mg/6 mm disc) is given as 7 mm; in assay [3] (1 mg/6 mm disc), 10.5 mm; in assay [3] (10 mg/6 mm disc), 15 mm; in assay [4] (0.1 mg/6 mm disc), 13 mm; in assay [4] (1 mg/6 mm disc), 19 mm; in assay [4] (10 mg/6 mm disc) it was 26 mm. Also, the “Inhibition zone (mm)” value is 7 mm in assay [5] (0.1 mg/6 mm disc), 14.5 mm in assay [5] (1 mg/6 mm disc) and 23 mm in assay [5] (10 mg/6 mm disc).
For `CC[C@H]1OC(=O)C[C@@H](O)[C@H](C)[C@@H](O[C@@H]2OC(C)[C@@H](O)C(N(C)C)C2O)[C@@H](CCn2cc(-c3ccc(N(C)C)cc3)nn2)C[C@@H](C)C(=O)/C=C/C(C)=C/[C@@H]1CO[C@@H]1OC(C)[C@@H](O)C(OC)C1OC` (stereo partly drawn) [YT29, 20-(4-(4-dimethylaminophenyl)-1H-1,2,3-triazol-1-yl)-20-deoxodesmycosin], in assay [1] (Table 2, 3 mg/6 mm disk), the zone of inhibition at 3 mg/disc turned out to be 13.5 mm. Moreover, the zone of inhibition at 10 mg/disc in assay [1] (Table 2, 10 mg/6 mm disk) came out at 16 mm. This compound also displayed a zone of inhibition at 30 mg/disc in assay [1] (Table 2, 30 mg/6 mm disk) of 17.5 mm. This compound also returned a zone of inhibition at 100 mg/disc in assay [1] (Table 2, 100 mg/6 mm disk) of 20 mm. Also, the “Inhibition zone (mm)” value in assay [3] (0.1 mg/6 mm disc) was 7 mm; in assay [3] (1 mg/6 mm disc) it was 10 mm; in assay [3] (10 mg/6 mm disc), 15 mm; in assay [4] (0.1 mg/6 mm disc) it was 11 mm; in assay [4] (1 mg/6 mm disc), 19.5 mm; in assay [4] (10 mg/6 mm disc), 25.5 mm. In addition, the “Inhibition zone (mm)” value is 7 mm in assay [5] (0.1 mg/6 mm disc), 15 mm in assay [5] (1 mg/6 mm disc) and 24 mm in assay [5] (10 mg/6 mm disc).
In the case of `CC[C@H]1OC(=O)C[C@@H](O)[C@H](C)[C@@H](O[C@@H]2OC(C)[C@@H](O)C(N(C)C)C2O)[C@@H](CCn2cc(-c3cnc4ccccc4c3)nn2)C[C@@H](C)C(=O)/C=C/C(C)=C/[C@@H]1CO[C@@H]1OC(C)[C@@H](O)C(OC)C1OC` (stereo partly drawn) [YT35, 20-(4-(3-quinoline)-1H-1,2,3-triazol-1-yl)-20-deoxodesmycosin], the zone of inhibition at 3 mg/disc in assay [1] (Table 2, 3 mg/6 mm disk) came out at 14 mm. The compound also showed a zone of inhibition at 10 mg/disc in assay [1] (Table 2, 10 mg/6 mm disk) of 17 mm. Moreover, in assay [1] (Table 2, 30 mg/6 mm disk), the zone of inhibition at 30 mg/disc is 19 mm. This compound came in with a zone of inhibition at 100 mg/disc in assay [1] (Table 2, 100 mg/6 mm disk) of 21 mm.
The compound `CC[C@H]1OC(=O)C[C@@H](O)[C@H](C)[C@@H](O[C@@H]2OC(C)[C@@H](O)C(N(C)C)C2O)[C@@H](CCn2cc(CCCCO)nn2)C[C@@H](C)C(=O)/C=C/C(C)=C/[C@@H]1CO[C@@H]1OC(C)[C@@H](O)C(OC)C1OC` (stereo partly drawn) [YT36, 20-(4-(4-butanol)-1H-1,2,3-triazol-1-yl)-20-deoxodesmycosin] showed a zone of inhibition at 100 mg/disc in assay [1] (Table 2, 100 mg/6 mm disk) of 9 mm.
With `CC[C@H]1OC(=O)C[C@@H](O)[C@H](C)[C@@H](O[C@@H]2OC(C)[C@@H](O)C(N(C)C)C2O)[C@@H](CCn2cc(CO)nn2)C[C@@H](C)C(=O)/C=C/C(C)=C/[C@@H]1CO[C@@H]1OC(C)[C@@H](O)C(OC)C1OC` (stereo partly drawn) [YT37, 20-(4-(methanol)-1H-1,2,3-triazol-1-yl)-20-deoxodesmycosin], in assay [1] (Table 2, 30 mg/6 mm disk), the zone of inhibition at 30 mg/disc is 9 mm. Also, the zone of inhibition at 100 mg/disc in assay [1] (Table 2, 100 mg/6 mm disk) was 12.5 mm.
Take `CC[C@H]1OC(=O)C[C@@H](O)[C@H](C)[C@@H](O[C@@H]2O[C@H](C)[C@@H](O)[C@H](N(C)C)[C@H]2O)[C@@H](CCn2cc(-c3ccccc3)nn2)C[C@@H](C)C(=O)/C=C/C(C)=C/[C@@H]1CN=[N+]=[N-]` [YT114, 20-(4-phenyl-1H-1,2,3-triazol-1-yl)-20-deoxo-23-azido-23-deoxy-5-O-mycaminosyltylonolide]: the “Inhibition zone (mm)” value in assay [1] (Table 4, 3 mg/6 mm disk) was determined as 11.5 mm; in assay [1] (Table 4, 10 mg/6 mm disk), 17.5 mm; in assay [1] (Table 4, 30 mg/6 mm disk), 21.0 mm; in assay [1] (Table 4, 100 mg/6 mm disk), 21.0 mm.
